# Values quoted from earlier work in patent US20090169619A1, “CARBAMAZEPINE EXTENDED RELEASE DOSAGE FORM” (CorePharma LLC, priority 2005, published 2009).
compound,measurement,value
"NC(=O)N1c2ccccc2C=Cc2ccccc21 [Carbamazepine, 5H-Dibenz[b,f]azepine-5-carboxamide]",solubility in water,poor solubility
